Reference: patent publication US6706880B2 (Research Triangle Institute, priority 1990, dated 2004)
Structures can show the parent of a compound that is named as a salt. Where two headings read alike, the source gives them in different places.

Key:
[1] = target: norepinephrine transporter (UniProt Q9WTR4); test: Inhibition of [3H]nisoxetine radioligand binding at the norepinephrine transporter
Excerpt: (§1) Illustrative in vitro assays for binding are described in Boja et al Ann. NY Acad. Sci. 654:282-291 (1992), which is incorporated herein by reference in its entirety. […] Alternatively, the compounds may be analyzed by their ability to inhibit reuptake of a labelled neurotransmitter in a sample, in particular, in synaptosomes.

[2] = target: T1, serotonin transporter (Rattus norvegicus, UniProt P31652); test: Inhibition of [3H]paroxetine radioligand binding at the serotonin transporter
T1 construct: from tissue
T1 sequence (P31652 whole entry): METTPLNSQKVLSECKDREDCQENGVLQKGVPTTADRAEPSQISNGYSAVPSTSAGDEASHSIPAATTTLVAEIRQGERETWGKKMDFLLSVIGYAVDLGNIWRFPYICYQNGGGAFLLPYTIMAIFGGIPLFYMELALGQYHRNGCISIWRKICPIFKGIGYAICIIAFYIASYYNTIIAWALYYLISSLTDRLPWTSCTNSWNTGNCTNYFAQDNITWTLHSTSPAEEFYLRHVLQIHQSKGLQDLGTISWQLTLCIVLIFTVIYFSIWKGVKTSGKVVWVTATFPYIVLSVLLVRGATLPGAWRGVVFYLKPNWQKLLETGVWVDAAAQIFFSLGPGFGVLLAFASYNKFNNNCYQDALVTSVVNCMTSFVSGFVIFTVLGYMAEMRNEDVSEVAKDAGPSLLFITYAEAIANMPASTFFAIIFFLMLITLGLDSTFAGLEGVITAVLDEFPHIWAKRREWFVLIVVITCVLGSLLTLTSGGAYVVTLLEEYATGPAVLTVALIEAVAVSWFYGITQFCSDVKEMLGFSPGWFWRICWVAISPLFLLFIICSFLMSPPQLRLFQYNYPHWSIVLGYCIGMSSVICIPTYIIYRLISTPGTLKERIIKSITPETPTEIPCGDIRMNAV
Excerpt: as §1

[3] = target: dopamine transporter (UniProt P23977); format: binding
Excerpt: as §1

[4] = tested on: dopamine transporter; format: binding; details: ratio of IC50 values, Table II
Excerpt: as §1

[5] = read-out: IC50 NE [3H]-nisoxetine, Table II
[6] = read-out: NEN IC50 for inhibition of radioligand binding, NEN=[3H] nisoxetine
[7] = 5-HT IC50 for inhibition of radioligand binding, 5-HT=[3H] paroxetine
[8] = IC50 5-HT [3H]-paroxatine, Table II
[9] = read-out: DA IC50 for inhibition of radioligand binding, DA=[3H]WIN 35,428
[10] = read-out: IC50 DA [3H]-WIN 35,428, Table II
[11] = 5-HT=[3H] paroxetine, read-out: 5-HT IC50 for inhibition of radioligand binding

Compound | melting point | IC50 ([1]; read-out: IC50 NE [3H]-nisoxetine, Table IV) [nM] | IC50 ([2]; IC50 5-HT [3H]-paroxetine, Table IV) [nM] | IC50 ([3]; read-out: IC50 DA [3H]-WIN 35,428, Table IV) [nM] | IC50 [1, 5] [nM] | IC50 [1, 6] [nM] | IC50 [2, 7] [nM] | IC50 [2, 8] [nM] | 5-HT/DA Ratio [4] | NE/DA Ratio [4] | IC50 [3, 9] [nM] | IC50 [3, 10] [nM] | IC50 [2, 11] [nM] | IC50 ([2]; Table II, read-out: IC50 5-HT [3H]-paroxatine (converted)) [nM]
Cc1ccc([C@H]2C[C@@H]3CC[C@H]([C@H]2c2nn[nH]n2)N3C)cc1 (as salt: hydrochloride) [RTI-157, 3β-(4-Methylphenyl)-tropane-2β-tetrazole Hydrochloride] | < 212 °C (dec.) |  |  |  |  |  |  |  |  |  |  |  |  | 
Cc1cc([C@H]2[C@@H](c3ccc(Cl)cc3)C[C@@H]3CC[C@H]2N3C)on1 (as salt: hydrochloride) [RTI-165, 3β-(4-Chlorophenyl)-2β-(3-methylisoxazol-5-yl)tropane Hydrochloride] | 235 °C (dec.) |  |  |  |  |  |  |  |  |  |  |  |  | 
CN1[C@H]2CC[C@@H]1[C@@H](c1cc(-c3ccccc3)no1)[C@@H](c1ccc(Cl)cc1)C2 (as salt: hydrochloride) [RTI-4229-177, 3β-(4-Chlorophenyl)-2β-(3-phenylisoxazol-5-yl)tropane Hydrochloride] | 287 °C |  |  |  |  |  |  |  |  |  |  |  |  | 
CN1C2CCC1C(c1nnc(-c3ccccc3)s1)C(c1ccc(Cl)cc1)C2 (stereo not drawn) (as salt: hydrochloride) [RTI-4229-200, 3β-(4-Chlorophenyl)-2β-(S-phenyl-1,3,4-thiadiazol-2-yl)-tropane Hydrochloride] | 165 to 170 °C |  |  |  |  |  |  |  |  |  |  |  |  | 
CN1[C@H]2CC[C@@H]1[C@@H](C#N)[C@@H](c1ccc(Cl)cc1)C2 [RTI-161, 3β-(4-Chlorophenyl)-tropane-2β-nitrile] | > 220 °C (dec.) | 2520 ± 253 | 1890 ± 134 | 13.1 ± 0.78 |  |  |  |  |  |  |  |  |  | 
CN1[C@H]2CC[C@@H]1[C@@H](c1cc(-c3ccccc3)no1)[C@@H](c1ccc(Cl)cc1)C2 [RTI-4229-177, 3β-(4-Chlorophenyl)-2β-(3-phenylisoxazol-5-yl)tropane Hydrochloride] |  |  |  |  | 504 ± 29 | 504 | 2420 | 2420 ± 136 | 1889 | 393 | 1.28 | 1.28 ± 0.18 |  | 
Cc1ccc([C@H]2C[C@@H]3CC[C@H]([C@H]2c2ncc(-c4ccccc4)o2)N3C)cc1 [RTI-4229-178, 3β-(4-Methylphenyl)-2β-(5-phenyl-oxazol-2-yl)-tropane Tartrate] |  |  |  |  | 677 | 677 | 1700 | 1700 | 48 | 19 | 35.4 | 35.4 |  | 
Cc1cc([C@H]2[C@@H](c3ccc(I)cc3)C[C@@H]3CC[C@H]2N3C)on1 [RTI-4229-180, 3β-(4-Iodophenyl)-2β-(3-methylisoxazol-5-yl)tropane Hydrochloride] |  |  |  |  | 67.9 | 67.9 |  | 36.4 |  | 93 |  | 0.73 |  | 
CN1[C@H]2CC[C@@H]1[C@@H](c1cc(-c3ccccc3)no1)[C@@H](c1ccc(I)cc1)C2 [RTI-4229-181, 3β-(4-Iodophenyl)-2β-(3-phenylisoxazol-5-yl)tropane Hydrochloride] |  |  |  |  | 868 | 868 | 100 | 100 | 39 | 337 | 2.57 | 2.57 |  | 
CN1[C@H]2CC[C@@H]1[C@@H](c1nnc(-c3ccccc3)o1)[C@@H](c1ccc(Cl)cc1)C2 [RTI-4229-188, 3β-(4-Chlorophenyl)-2β-(5-phenyl-1,3,4-oxadiazol-2-yl)-tropane Hydrochloride] |  |  |  |  | 929 ± 88 | 929 |  | 3300 ± 196 | 262 | 73 | 12.6 | 12.6 ± 1.03 | 3300 | 
CN1[C@H]2CC[C@@H]1[C@@H](c1ncc(-c3ccccc3)o1)[C@@H](c1ccc(Cl)cc1)C2 [RTI-4229-189, 3β-(4-Chlorophenyl)-2β-(5-phenyl-oxazol-2-yl)-tropane Tartrate] |  |  |  |  | 496 ± 42 | 496 |  |  | 57 | 25 | 19.7 | 19.7 ± 1.98 | 1120 | 1120 ± 107
Cc1ccc([C@H]2C[C@@H]3CC[C@H]([C@H]2c2nnc(C)o2)N3C)cc1 [RTI-4229-194, 3β-(4-Methylphenyl)-2β-(5-methyl-1,3,4-oxadiazol-2-yl)-tropane Hydrochloride] |  |  |  |  | 253 ± 19 | 253 | 4880 | 4880 ± 155 | 1098 | 57 | 4.45 | 4.45 ± 0.12 |  | 
Cc1ccc([C@H]2C[C@@H]3CC[C@H]([C@H]2c2nnc(-c4ccccc4)o2)N3C)cc1 [RTI-4229-195, 3β-(4-Methylphenyl)-2β-(5-phenyl-1,3,4-oxadiazol-2-yl)-tropane Hydrochloride] |  |  |  |  | 1310 | 1310 | 22300 | 23300 | 491 | 28 | 47.5 | 47.5 |  | 
Cc1ccc([C@H]2C[C@@H]3CC[C@H]([C@H]2c2nnc(-c4ccccc4)s2)N3C)cc1 [RTI-4229-199, 3β-(4-Methylphenyl)-2β-(5-phenyl-1,3,4-thiadiazol-2-yl)-tropane Hydrochloride] |  |  |  |  | 24300 |  | 51500 | 51500 | 1434 | 677 | 35.9 | 35.9 |  | 
CN1C2CCC1C(c1nnc(-c3ccccc3)s1)C(c1ccc(Cl)cc1)C2 (stereo not drawn) [RTI-4229-200, 3β-(4-Chlorophenyl)-2β-(S-phenyl-1,3,4-thiadiazol-2-yl)-tropane Hydrochloride] |  |  |  |  | 4140 ± 466 | 4140 | 18400 | 18400 | 1203 | 271 | 15.3 | 15.3 ± 2.43 |  | 
CN1[C@H]2CC[C@@H]1[C@@H](c1nc3ccccc3s1)[C@@H](c1ccc(Cl)cc1)C2 [RTI-4229-202, 3β-(4-Chlorophenyl)-2β-(benzothiazol-2-yl)-tropane Hydrochloride] |  |  |  |  | 403 ± 30 | 403 | 1120 | 1120 ± 120 | 817 | 294 | 1.37 | 1.37 ± 0.14 |  | 
CN1[C@H]2CC[C@@H]1[C@@H](c1ncc(-c3ccccc3)s1)[C@@H](c1ccc(Cl)cc1)C2 [RTI-4229-219, 3β-(4-Chlorophenyl)-2β-(5-phenylthiazol-2-yl)-tropane Hydrochloride] |  |  |  |  |  | 8560 | 10300 | 10300 | 1811 |  | 5.71 |  |  | 
